How the values were obtained:
[1] = tested on: cortical neurons isolated from mouse foetuses; assay: Effect on glutamate-induced cortical neuronal toxicity; format: cell-based; conditions: monosodium glutamate 1 nmol·L^−1; L-carnitine/acetyl L-carnitine 5 nmol·L^−1, huperzine A 10 nmol·L^−1, added half an hour before glutamate; glutamate alone 20%
Description: As is known , persistent stimulation of glutamate receptors induces a neurotoxic effect leading to the death of neuronal cells: this is one of the mechanisms regarding as being responsible for the pathogenesis of Alzheimer's disease. The aim of these tests was to observe whether preincubation of cortical neuronal cells with L-carnitine+acetyl L-carnitine carnitine alone or in combination with huperzine A may lead to a reduction of glutamate-induced toxicity and to greater survival of neuronal cells. In these tests, cortical neurons isolated from mouse foetuses were used, according to the method described by Lin [Lin L., J. Nanjing Univ. (Natural Science Edition) 31:514, 1995—Lin L., Acta Pharmacol. Sinica, 17:221, 1996]. After isolating the cells, they were suspended on plates with a density of 6.4×10^8 cells/m^2 surface. To prevent proliferation of non-neuronal cells, […]. […]
The solutions of L-carnitine/acetyl L-carnitine or huperzine A were added to the Locke solution half an hour before monosodium glutamate. […] according to the procedure disclosed by Green (Green L. M., J. Immunol. Methods, 70:257, 1984).

[2] = tested on: glutamate-induced spontaneous motility in mice; assay: Glutamate excitability tests (hypermotility after intracerebral glutamate); format: in vivo; conditions: treatment one hour prior, huperzine A 0.05 mg/kg, L-carnitine 200 mg/kg + acetyl L-carnitine 50 mg/kg
From the text: Excitatory amino acids such as glutamate, if administered by intracerebral injection, produce a series of behavioural effects, the most evident of which is hypermotility.
To evaluate the effect of huperzine A and L-carnitine/acetyl L-carnitine and of a combination of these, mice received intracerebral injections of increasing doses of glutamate according to the method described by Lama (Lama E., Acta Pharmacol. Sinica, 9:252, 1988). The increase in spontaneous motility of these animals placed in a box with transparent walls was then evaluated by means of a photoelectric cell which recorded the number of passes for a period of five minutes. The motility test was conduced both in control animals and in animals treated one hour prior to injection of glutamate with huperzine A and with L-carnitine/acetyl L- carnitine and with a combination of these compounds. The results of these tests (see Table 2) indicate that treatment with huperzine A reduces the increase in motility induced by glutamate in mice, but that the greastest reduction is that obtained by administration of the combination of huperzine A and L-carnitine/acetyl L-carnitine.

## C/C=C1\[C@H]2C=C(C)C[C@]1(N)c1ccc(=O)[nH]c1C2 [huperzine A]
[1]
  survival rate of neuronal cells: 30%
[2]; Glutamate 1 ng/mouse intracerebral, glutamate control 241 ± 35
  N. passes in 5 min observation: 226 ± 24
[2]; Glutamate 5 ng/mouse intracerebral, glutamate control 364 ± 39
  N. passes in 5 min observation: 296 ± 16

Source: patent publication US20040058947A1, “Composition for the prevention or treatment of learning disorders in children suffering from attention deficit/hyperactive disorder” (priority 2001, published 2004)
